In patent US4060652A (priority 1976, dated 1977):
Where two headings read alike, the source gives them in different places.

Legend:
[1] = Lethality by paralysis of respiratory muscles in mice; settings: mouse, in vivo, iv
Text: (§1) In experiments on albino mice, the dose of Tercuronium injected into the tail vein, that inhibited the symptom of turning from the lateral position in 50 percent of mice (ED50) was 0.06 mcM/kg (18 experiments); and 50 percent of mice perished from paralysis of the respiratory muscles (LD50) following an injection of 0.09 mcM/kg of Tercuronium.

rabbits = assay: Head-drop test in non-narcotized rabbits; assay type: in vivo
Protocol: In experiments (a total of twenty) on non-narcotized rabbits, the head-drop dose (HDD) was 0.022 ± 0.009 micromole/kg A complete blocking effect developed 1.5 to 2 minutes after administration of Tercuronium and persisted for 3 to 5 minutes. A few minutes later, the animal behaviour normalized. The same effect was attained with 0.18 ± 0.02 micromole/kg of α-tubocurarin (6 experiments) and 0.018 ± 0.001 mcM/kg of pancuronium (6 experiments). The time of onset and the duration of the blocking effect with all the three preparations were the same.

[2] = tested on: nervomuscular conduction, anterior tibial muscle; assay: Neostigmin antagonism of nervomuscular block in cats; assay type: in vivo
Protocol: (§2) Cats were narcotized (with chloralose, 50 mg per kg body weight, and urethane, 500 mg/kg, intraperitoneally) or decerebrated at the quadrigeminal bodies level. The lungs were ventilated artificially whenever necessary. Contractions of the anterior tibial muscle were recorded in isotonic concitions in response to electric stimulation of the peripheral part of n. peroneus with supramaximum pulses of 0.1 msec at a frequency of 0.1-100 Hz.
For example, even with a 5-fold dose of tercuronium, muscle contractility was restored already in 2 to 5 minutes following a single injection of neostigmin in a dose of 0.1 mg/kg, and in 15-20 minutes the recovery of the contactile function was complete.
In the case of pancuronium and α-tubocurarin, the restoration within these short periods of time could only be attained with 2-3 fold doses of these muscle relaxants. If the dose of pancuronium was increased 4 to 5 times, weak contractions of the muscle were observed not sooner than in 9 to 10 minutes and the contraction was, restored completely only 30 minutes after the injection of neostigmin (six experiments). The restoration of muscle contractility is delayed even longer in the case of α-tubocurarin.

respiration = assay: Inhibition of respiration in narcotized and decerebrated cats (and rabbits); assay type: in vivo
Text: This developed simultaneously with the block of the nervomuscular conduction in the anterior tibial muscle. […] The same result was obtained in experiments on rabbits. The ratio of LD50 in experiments on rabbits and mice, as specified above, also provides data on the that Tercuronium produces on respiration.

[3] = tested on: nervomuscular conduction, anterior tibial muscle; assay: Nervomuscular block in cats, indirect stimulation of anterior tibial muscle; assay type: in vivo
Protocol: The preparation was studied in acute experiments on cats, rabbits, mice and pigeons, in experiments on phrenico-diaphragm preparations of rats, and also on the straight muscle of a frog abdomen. The properties of Tercuronium were compared with those of α-tubocurarin and pancuronium.
as §2

albino mice = assay: Inhibition of turning from the lateral position in mice; assay type: in vivo; settings: Mus musculus, iv; mice, turning from the lateral position; read-out: ED50
Text: as §1

arterial pressure = assay: Effect on arterial pressure in cats and rabbits; assay type: in vivo
Protocol: Experiments were carried out on narcotized cats and rabbits (50 mg/kg of chloralose and 500 mg/kg urethane, intraperitoneally) and also on cats decerebrated at the quadrigeminal level. The blood pressure in the carotid artery was recorded with a mercury pressure gauge. The preparations were injected intravenously.
When Tercuronium was given in a quantity ten times exceeding the myoparalytic dose (0.8 mcM/kg) an insignificant and transient reduction (10 to 20 mm Hg) of the blood pressure was observed. The animals (7 cats and 5 rabbits) tolerated injections of very large doses of Tercuronium, viz., 10-20 mcM/kg, which is 200 times higher than the myoparalytic dose. […] In all experiments, in 1 to 2 hours, the arterial pressure restored completely or was close to the initial level.

[4] = Lethality by paralysis of respiratory muscles in rabbits; settings: rabbit, in vivo
Text: In another series of experiments, we determined the intravenous dose of the muscle relaxants that caused death of 50% of the animals due to paralysis of the respiratory muscles -- lethal dose 50% (LD50).

[5] = Effect on sympathetic ganglia, third eyelid contraction in cats; assay type: in vivo; settings: cat, in vivo, iv, read-out: ganglioblocking dose as multiple of myoparalytic dose
Protocol: Experiments were carried out on narcotized cats. A peripheral part of the sympathetic column on the neck was stimulated with electric pulses at 5 Hz. The duration of the stimulus was 1 msec, the amplitude 5 V. The contractions of the third eyelid (nictiating membrane) and the arterial (carotid) pressure were recorded with a mercury pressure gauge. We determined the intravenous dose of Tercuronium, α-tubocurarin and pancuronium that decreased the height of contraction of the third eyelid by 50 to 60 percent in conditions of prolonged stimulation of the sympathetic column.

[6] = tested on: nervomuscular conduction, vegetative ganglia, circulation; assay: Overall conclusions from animal experiments; assay type: in vivo, animals
Text: The results of the pharmacological studies of the proposed muscle relaxant Tercuronium, as compared with the known muscle relaxants, enable us to make the following conclusions.

[7] = tested on: nervomuscular conduction, ganglia, circulation; settings: cited from earlier work

**Q.** Which LD50 [1] does the source give for `CC(=O)O[C@H]1C[C@@H]2CC[C@@H]3[C@H](CC[C@@]4(C)[C@H]3C[C@H]([N+]3(C)CCCCC3)[C@@H]4OC(C)=O)[C@@]2(C)C[C@@H]1[N+]1(C)CCCCC1` [pancuronium, reference compound] here?
**A.** 0.062 µmol/kg

**Q.** And the selectivity ratio ([1]; read-out: width of the muscle relaxing action (LD50/ED50))?
**A.** 1.5

**Q.** What about the ED (head drop) (rabbits; Oryctolagus cuniculus, non-narcotized rabbits, read-out: head-drop dose (HDD)) of the same molecule?
**A.** 0.018 ± 0.001 µmol/kg

**Q.** And the “time of onset and duration of blocking effect, comparison” value (rabbits; all three preparations)?
**A.** the same

**Q.** What about the “multiple of dose at which restoration within the short periods could be attained” value ([2]; cats, neostigmin) of the same molecule?
**A.** 2-3 fold

**Q.** What about the “time to complete restoration of contraction after neostigmin” value ([2]; dose increased 4 to 5 times, six experiments) of the same molecule?
**A.** 30 min

**Q.** And the “number of myoparalytic doses whose blocking effect is completely removed by neostigmin” value ([2]; neostigmin 0.1 mg/kg intravenous, within five minutes)?
**A.** three

**Q.** And the “inhibition of respiration by blocking doses, comparison” value (respiration; from LD50 to ED50 ratio)?
**A.** equally inhibit respiration

**Q.** And the effect on respiration (respiration; narcotized and decerebrated cats)?
**A.** The same effect was observed

**Q.** And the “mean duration of effect” value [3]?
**A.** nine

**Q.** And the ED (95-100) ([3]; Felis catus, intravenous, 0.1 Hz, read-out: dose blocking nervomuscular conduction (95-100 percent))?
**A.** 0.04 ± 0.001 µmol/kg

**Q.** What about the ED50 (albino mice) of the same molecule?
**A.** 0.042 µmol/kg

**Q.** And the “effect on arterial pressure of 20-fold dose” value (arterial pressure; 20-fold dose)?
**A.** moderately depressive

**Q.** And the “arterial pressure on doses that inhibit respiration” value (arterial pressure; active ventilation of the lungs)?
**A.** asphyxial rise in the arterial pressure

**Q.** And the “effect on arterial pressure of myoparalytic (complete block) dose” value (arterial pressure; artificial ventilation)?
**A.** the arterial pressure did not drop either

**Q.** And the LD50 ([4]; intravenous)?
**A.** 0.026 µmol/kg

**Q.** What about the selectivity ratio ([4]; read-out: LD50 to HDD ratio) of the same molecule?
**A.** 1.4

**Q.** And the selectivity ratio [5]?
**A.** 30

**Q.** What about the “arterial pressure and pulse rate” value ([6]; in vivo) of the same molecule?
**A.** stable rise in the arterial pressure, which results in increased hemorrhage in surgical operations and in accelerated pulse rate

**Q.** What about the “histamine, vegetative ganglia, blood pressure and heart frequency” value ([6]; myoparalytic dose) of the same molecule?
**A.** do not produce histamine or block vegetative ganglia

**Q.** What about the “conditions for tracheal intubation” value ([7]; 0.15 mg/kg) of the same molecule?
**A.** favourable conditions for tracheal intubation are provided

**Q.** And the “duration of myoparalytic action” value ([7]; background)?
**A.** lasts for the same period of time as that of α-tubocurarin

**Q.** What about the “fold less active than α-tubocurarin in blocking conduction in sympathetic ganglia” value ([7]; background) of the same molecule?
**A.** 2.5 times

**Q.** And the “histamine release, ganglia and circulatory effects” value (“histamine release” below) ([7]; background)?
**A.** often accelerates the pulse rate and increases arterial pressure

**Q.** What about the “removal of myoparalytic action by proserpin” value ([7]; background) of the same molecule?
**A.** can be removed with proserpin, and cases with difficult decurarization occur less frequently than with α-tubocurarin

**Q.** And the “histamine release” value ([7]; background, listed as Pancuronium)?
**A.** does not induce production of histamine from tissues, nor does it lower arterial pressure

**Q.** With `C[N+](C)(C)CCOC(=O)CCC(=O)OCC[N+](C)(C)C` [succinylcholine, dicholine ester of succinic acid] as the molecule, how does the “duration of action in patients with hepatic dysfunction and low cholinesterase” value ([7]; common dose) read?
**A.** can last for a period of a few hours

**Q.** With `CC[N+](CC)(CC)CCOc1cccc(OCC[N+](CC)(CC)CC)c1OCC[N+](CC)(CC)CC` [pyrolaxon] as the molecule, how does the “histamine release” value ([7]; background) read?
**A.** blocks parasympathetic ganglia and produces tachycardia
